These results are taken from a flash point compilation (Sun et al. 2020).

The compound `CCC(C)(C)CCl` [1-Chloro-2,2-dimethylbutane] came in with a flash point of 19.1 °C.

With `CCC(C)CCl` (stereo not drawn) [1-Chloro-2-methylbutane], the flash point was 10 °C.

This is another data set of the same source.
Turning to `C[Si](C)(C)O[Si](C)(C)O[Si](C)(C)C` [Octamethyltrisiloxane], the flash point stood at 30.00 °C.

On to `Cl[SiH](Cl)c1ccccc1` [Phenyldichlorosilane], for which the flash point came to 60.00 °C.

For `CCO[Si](OCC)(OCC)c1ccccc1` [Phenyltriethoxysilane], the flash point came to 120.00 °C.

Take `CCCO[Si](OCCC)(OCCC)OCCC` [Tetra-n-propoxysilane]: the flash point was found to be 95.00 °C.

Take `C[Si](C)(C)O[Si](C)(C)O[Si](C)(C)O[Si](C)(C)O[Si](C)(C)O[Si](C)(C)C` [Tetradecamethylhexasiloxane]: the flash point is 102.00 °C.

Compound `CCO[Si](OCC)(OCC)OCC` [Tetraethoxysilane] yielded a flash point of 50.00 °C.

As for `CC[Si](CC)(CC)CC` [Tetraethylsilane], the flash point is 32.00 °C.

`C=C[Si](C=C)(C=C)C=C` [Tetravinylsilane] showed a flash point of 18.00 °C.

`Clc1ccc([Si](Cl)(Cl)Cl)cc1` [Trichloro(p-chlorophenyl)silane]: the flash point was 123.90 °C.

Compound `CC[Si](Cl)(CC)CC` [Triethylchlorosilane] displayed a flash point of 30.00 °C.

In turn, `CC(C)[SiH](C(C)C)C(C)C` [Triisopropylsilane] showed a flash point of 37.00 °C.

Turning to `C[Si](C)(C)Br` [Trimethylbromosilane], the flash point is -3.00 °C.

Take `C[Si](C)(C)c1ccccc1` [Trimethylphenylsilane]: the flash point was found to be 40.00 °C.

As to `C[Si](C)(C)OC(=O)C(F)(F)F` [Trimethylsilyltrifluoroacetate], the flash point amounted to 0.00 °C.

Consider `C[Si](C)(C)O[SiH](O[Si](C)(C)C)O[Si](C)(C)C` [Tris(trimethylsiloxy)silane], for which the flash point was 50.00 °C.

Turning to `C=C[Si](OCC)(OCC)OCC` [Vinyltriethoxysilane], the flash point was determined as 34.00 °C.

Take `CCCC[Si](Cl)(Cl)Cl` [n-Butyltrichlorosilane]: the flash point is 54.00 °C.

`CCCCCCC[Si](C)(Cl)Cl` [n-Heptylmethyldichlorosilane] gave a flash point of 66.00 °C.

`CCCCCCC[Si](Cl)(Cl)Cl` [n-Heptyltrichlorosilane] came in with a flash point of 64.00 °C.

In turn, `CC(C)(C)[Si](Cl)(Cl)Cl` [t-Butyltrichlorosilane] registered a flash point of 21.00 °C.

The source holds these as a separate data set.
Compound `C[C@@H]1CCCC[C@H]1C` (relative stereo) [trans-1,2-dimethylcyclohexane] showed a flash point of 6 °C.

Consider `C=C(CC)CC` [2-ethyl-1-butene], for which the flash point is -20 °C.

As for `C=C(C)CC` [2-methyl-1-butene], the flash point was -34 °C.

For `C1=CC2CCC1C2` [2-norbornene], the flash point was -15 °C.

In turn, `C[C@@H]1CCC[C@H](C)C1` [cis-1,3-dimethylcyclohexane] yielded a flash point of 5 °C.

The compound `CCCCc1ccccc1` [n-butylbenzene] showed a flash point of 59 °C.

For `C/C=C/CCC` [trans-2-hexene], the flash point was -20 °C.

This is another data set of the same source.
Take `C[C@@H]1CCCC[C@H]1C` (relative stereo) [trans-1,2-dimethylcyclohexane]: the flash point was determined as 7 °C.

Compound `CC1(C)CCCCC1` [1,1-dimethylcyclohexane] displayed a flash point of 7 °C.

`Cc1cc(C)c(C)c(C)c1` [1,2,3,5-tetramethylbenzene] showed a flash point of 63 °C.

Compound `CC1=CC(C)CCC1` (stereo not drawn) [1,3-dimethylcyclohexene] registered a flash point of 12 °C.

For `CCC(C)(C)C(C)(C)C` [2,2,3,3-tetramethylpentane], the flash point is 16 °C.

On to `CCCCC(C)(C)C` [2,2-dimethylhexane], for which the flash point was -3 °C.

For `CCCCCCC(C)(C)C` [2,2-dimethyloctane], the flash point is 31 °C.

The compound `CCCCCC(C)C(C)C` (stereo not drawn) [2,3-dimethyloctane] came in with a flash point of 36 °C.

`CCC(C)CCC(C)C` (stereo not drawn) [2,5-dimethylheptane] registered a flash point of 15 °C.

Regarding `C=C(CC)CC` [2-ethyl-1-butene], the flash point is -26 °C.

In the case of `CC#CCCCC` [2-heptyne], the flash point stood at 2 °C.

As to `C=C(C)CC` [2-methyl-1-butene], the flash point is -47 °C.

The compound `CCCCCCC(C)C` [2-methyloctane] had a flash point of 24 °C.

As to `C1=CC2CCC1C2` [2-norbornene], the flash point is -14 °C.

In the case of `C=CC(CC)CCC` (stereo not drawn) [3-ethyl-1-hexene], the flash point amounted to 1 °C.

In the case of `C=CC(CC)CC` [3-ethyl-1-pentene], the flash point was -17 °C.

`CCC(C(C)C)C(C)C` [3-ethyl-2,4-dimethylpentane] returned a flash point of 15 °C.

With `CC=C(CC)CC` [3-ethyl-2-pentene], the flash point was -6 °C.

On to `C=CC(C)CCC` (stereo not drawn) [3-methyl-1-hexene], for which the flash point was -18 °C.

`C=CCC(C)CCC` (stereo not drawn) [4-methyl-1-heptene] showed a flash point of 2 °C.

`CCCC(C)CCC` [4-methylheptane] came in with a flash point of 5 °C.

The compound `CCCC(CCC)CCC` [4-propylheptane] showed a flash point of 41 °C.

Consider `C=CCC1CCCCC1` [allylcyclohexane], for which the flash point is 29 °C.

The compound `C1CCC(C2CCCCC2)CC1` [bicyclohexyl] came in with a flash point of 92 °C.

For `C[C@@H]1CCC[C@H](C)C1` [cis-1,3-dimethylcyclohexane], the flash point is 6 °C.

As for `C/C=C\CCCC` [cis-2-heptene], the flash point was -8 °C.

As to `CC/C=C\CCC` [cis-3-heptene], the flash point is -9 °C.

For `C/C=C\C(C)C` [cis-4-methyl-2-pentene], the flash point was -36 °C.

`C1CC[C@H]2CCCC[C@H]2C1` [cis-decalin] yielded a flash point of 58 °C.

`CC(C)C1CCCC1` [isopropylcyclopentane]: the flash point was found to be 14 °C.

`CCCCc1ccccc1` [n-butylbenzene] returned a flash point of 50 °C.

For the compound `CCCCC1CCCC1` [n-butylcyclopentane], the flash point worked out at 35 °C.

Compound `CCCCCC1CCCCC1` [n-pentylcyclohexane] had a flash point of 66 °C.

For `CCCC1CCCC1` [propylcyclopentane], the flash point amounted to 16 °C.

Take `C/C=C/CCC` [trans-2-hexene]: the flash point was -27 °C.

In the case of `CC/C=C/CC` [trans-3-hexene], the flash point was -25 °C.

This is another data set of the same source.
Consider `CCC(C)C(C)C(C)(C)C` (stereo not drawn) [2,2,3,4-Tetramethylhexane], for which the flash point worked out at 31 °C.

Turning to `CCC(C)C(C)(C)C` (stereo not drawn) [2,2,3-Trimethylpentane], the flash point was -3 °C.

In turn, `CC(CC(C)(C)C)CC(C)(C)CC(C)(C)C` (stereo not drawn) [2,2,4,4,6,8,8-Heptamethylnonane] registered a flash point of 95 °C.

Consider `CCC(C)(C)CC(C)(C)C` [2,2,4,4-Tetramethylhexane], for which the flash point was determined as 31 °C.

`CCC(C)CC(C)(C)C` (stereo not drawn) [2,2,4-Trimethylhexane] gave a flash point of 15 °C.

For `CCCCCC(C)(C)C` [2,2-Dimethylheptane], the flash point is 24 °C.

On to `CCCCC(C)(C)C` [2,2-Dimethylhexane], for which the flash point is -4 °C.

For the compound `CCCC(C)(C)C` [2,2-Dimethylpentane], the flash point is -23 °C.

`CC(C)(C)C` [2,2-Dimethylpropane]: the flash point is -65 °C.

Regarding `CCCC(C)(C)C(C)C` [2,3,3-Trimethylhexane], the flash point worked out at 15 °C.

`CCC(C)(C)C(C)C(C)C` (stereo not drawn) [2,3,4,4-Tetramethylhexane] came in with a flash point of 31 °C.

As for `CC(C)C(C)C(C)C(C)C` (stereo not drawn) [2,3,4,5-Tetramethylhexane], the flash point was 31 °C.

Take `CC(C)C(C)C(C)C` [2,3,4-Trimethylpentane]: the flash point is -0 °C.

The compound `CCCCC(C)C(C)C` (stereo not drawn) [2,3-Dimethylheptane] returned a flash point of 15 °C.

`CCCCCC(C)C(C)C` (stereo not drawn) [2,3-Dimethyloctane] showed a flash point of 41 °C.

`CCC(C)(C)CC(C)C` [2,4,4-Trimethylhexane] registered a flash point of 15 °C.

On to `CC(C)CC(C)CC(C)C` [2,4,6-Trimethylheptane], for which the flash point worked out at 31 °C.

`CCCC(C)CC(C)C` (stereo not drawn) [2,4-Dimethylheptane] came in with a flash point of 15 °C.

Consider `CCC(C)CC(C)C` (stereo not drawn) [2,4-Dimethylhexane], for which the flash point came out at 10 °C.

`CC(C)CCCCC(C)C` [2,7-Dimethyloctane] gave a flash point of 41 °C.

`CCCC(C)C` [2-Methylpentane]: the flash point is -23 °C.

`CCC(C)(C)C(C)(C)CC` [3,3,4,4-Tetramethylhexane] had a flash point of 31 °C.

For the compound `CCCC(C)(C)CC` [3,3-Dimethylhexane], the flash point was -1 °C.

`CCCCCC(C)(C)CC` [3,3-Dimethyloctane] returned a flash point of 41 °C.

`CCC(C)C(C)CC` (stereo not drawn) [3,4-Dimethylhexane]: the flash point was 4 °C.

`CCC(C)CC(C)CC` (stereo not drawn) [3,5-Dimethylheptane]: the flash point turned out to be 15 °C.

`CCCC(C)CC(C)CC` (stereo not drawn) [3,5-Dimethyloctane] gave a flash point of 41 °C.

With `CCC(CC)C(C)(C)C` [3-Ethyl-2,2-dimethylpentane], the flash point was found to be 13 °C.

Compound `CCCCC(C)(CC)CC` [3-Ethyl-3-methylheptane] gave a flash point of 41 °C.

In turn, `CCC(C)C(CC)CC` (stereo not drawn) [3-Ethyl-4-methylhexane] registered a flash point of 15 °C.

`CCC(C)CC(CC)CC` (stereo not drawn) [3-Ethyl-5-methylheptane] returned a flash point of 31 °C.

Consider `CCC(C)(CC)CC` [3-Methyl-3-ethylpentane], for which the flash point was determined as 3 °C.

For `CCCC(C)CC` (stereo not drawn) [3-Methylhexane], the flash point was -15 °C.

Compound `CCCCCC(C)CC` (stereo not drawn) [3-Methyloctane] displayed a flash point of 24 °C.

Take `CCC(C)CC` [3-Methylpentane]: the flash point was -32 °C.

The compound `CCCC(C)(C)CCC` [4,4-Dimethylheptane] came in with a flash point of 15 °C.

With `CCCC(CC)CCC` [4-Ethylheptane], the flash point is 15 °C.

The source holds these as a separate data set.
For `CC#CCCCC` [2-heptyne], the flash point amounted to 8 °C.
